# Compound: CC1(COc2ccc3c(c2)ncn3-c2ccc3cccc(N4CCC(N)CC4)c3n2)COC1 [Crenolanib] + NC(=O)Nc1cc(-c2cccc(F)c2)sc1C(=O)N[C@H]1CCCNC1 [AZD7762] (partner 0.2 µM)
# Assay: relative viability (nuclei count vs DMSO), 5 days (fraction); higher = more cells survive
# Conditions: first compound 1 µM
# Method in brief: (§1)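 Lung cancer cell lines were seeded in 1536-well plates and dosed by pin tool the next day, with either a single drug or a fixed anchor-drug dose combined with five library-drug doses (not always all listed) spaced in √10 steps. Five days later, one step fixed the cells and stained their nuclei (final 0.05% Triton X-100, 1% formaldehyde, 1 ug/ml Hoechst), and nuclei were counted on 4× images. Relative viability is the nuclei count in treated wells divided by the count in vehicle wells, and each value is the median of duplicate plates.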
row,Cell Line,relative viability
1,NCI-H1666,0.889
2,H3255,0.797
3,NCI-H23,0.276
4,NCI-H1915,0.585
5,NCI-H1437,1.14
6,NCI-H322M,0.695
7,NCI-H2085,1
8,HCC-366,0.474
9,NCI-H1793,0.645

# Compound: CC1(COc2ccc3c(c2)ncn3-c2ccc3cccc(N4CCC(N)CC4)c3n2)COC1 [Crenolanib] + COc1cc2c(Oc3ccc(NC(=O)C4(C(=O)Nc5ccc(F)cc5)CC4)cc3F)ccnc2cc1OCCCN1CCOCC1 [Foretinib] (partner 0.25 µM)
# Assay: as above
# Conditions: first compound 0.01 µM
# Method in brief: as §1
row,Cell Line,relative viability
1,HCC-78,0.584
2,LXF-289,1.02
3,BEN,0.84
4,HCC-15,1.08
5,HCC-827,1.08
6,NCI-H441,1.13
7,LOU-NH91,0.969
8,A-427,1.05
9,NCI-H460,1.02
10,NCI-H727,0.915
11,NCI-H1755,0.944
12,NCI-H2405,1.16
13,NCI-H1395,1.03
14,201T,1.19
15,NCI-H1975,1.06
16,HOP-62,1.19
17,NCI-H2347,0.879
18,NCI-H1355,1.02
19,NCI-H650,1.09
20,CAL-12T,1.15
21,NCI-H1666,0.987
22,H3255,0.935
23,NCI-H23,1.12
24,NCI-H1915,1.09
25,NCI-H1437,1.28
26,NCI-H322M,0.951
27,NCI-H2085,1.01
28,HCC-366,0.918
29,NCI-H1793,0.669

# Same assay, conditions: first compound 0.03162 µM
row,Cell Line,relative viability
1,HCC-78,0.59
2,LXF-289,0.971
3,BEN,0.44
4,HCC-15,1.07
5,HCC-827,1.04
6,NCI-H441,1.05
7,LOU-NH91,0.914
8,A-427,0.969
9,NCI-H460,1.06
10,NCI-H727,0.975
11,NCI-H1755,0.905
12,NCI-H2405,1.05
13,NCI-H1395,0.97
14,201T,1.1
15,NCI-H1975,0.969
16,HOP-62,1.23
17,NCI-H2347,0.757
18,NCI-H1355,1
19,NCI-H650,0.986
20,CAL-12T,1.05
21,NCI-H1666,0.897
22,H3255,0.851
23,NCI-H23,1.13
24,NCI-H1915,1.09
25,NCI-H1437,1.28
26,NCI-H322M,1.07
27,NCI-H2085,0.845
28,HCC-366,0.954
29,NCI-H1793,0.895

# Same assay, conditions: first compound 0.1 µM
row,Cell Line,relative viability
1,LXF-289,0.942
2,BEN,0.659
3,HCC-15,0.989
4,HCC-827,1.04
5,NCI-H441,0.775
6,LOU-NH91,0.893
7,A-427,1.14
8,NCI-H460,0.938
9,NCI-H727,0.835
10,NCI-H1755,0.889
11,NCI-H1395,1.01
12,201T,1.03
13,NCI-H1975,0.847
14,HOP-62,1.09
15,NCI-H1355,0.94
16,NCI-H650,0.991
17,CAL-12T,1.18
18,NCI-H1666,0.886
19,H3255,0.84
20,NCI-H23,0.97
21,NCI-H1915,1.04
22,NCI-H1437,1.31
23,NCI-H322M,0.973
24,NCI-H2085,0.847
25,HCC-366,0.956
26,NCI-H1793,0.64

# Same assay, conditions: first compound 0.3162 µM
row,Cell Line,relative viability
1,HCC-78,0.545
2,LXF-289,0.989
3,BEN,0.819
4,HCC-15,1.01
5,HCC-827,1.1
6,NCI-H441,0.951
7,LOU-NH91,0.888
8,A-427,1.1
9,NCI-H460,1
10,NCI-H727,0.893
11,NCI-H1755,0.937
12,NCI-H2405,1.02
13,NCI-H1395,1.07
14,201T,1.12
15,NCI-H1975,0.94
16,HOP-62,1.08
17,NCI-H2347,1.02
18,NCI-H1355,1.07
19,NCI-H650,1.02
20,CAL-12T,1.33
21,NCI-H1666,1.02
22,H3255,0.877
23,NCI-H23,0.995
24,NCI-H1915,1.1
25,NCI-H1437,1.31
26,NCI-H322M,0.96
27,NCI-H2085,1.04
28,HCC-366,0.942
29,NCI-H1793,0.608

# Same assay, conditions: first compound 1 µM
row,Cell Line,relative viability
1,HCC-78,0.525
2,LXF-289,0.977
3,BEN,0.656
4,HCC-15,0.853
5,HCC-827,0.998
6,NCI-H441,0.958
7,LOU-NH91,0.892
8,A-427,1.09
9,NCI-H460,0.99
10,NCI-H727,0.809
11,NCI-H1755,0.908
12,NCI-H2405,1.06

# From the supplement of paper PMC10307832
